The nature of this data set: Quantification of stearic acid and palmitic acid in water after homogenization, centrifugation and filtration. It is filed as physicochemical. The method, then:
For the quantification of stearic acid and palmitic acid in water from magnesium stearate alone 1 mg magnesium stearate was added in water under high shear homogenization and mixed for 15 min under continuous homogenization. After homogenization, the prepared dispersion was centrifuged to remove bigger particle size. The supernatant solution was then filtered through 0.2-micron nylon syringe filter and the filtrate was analyzed for content of stearic acid and palmitic acid. […] After homogenization, the prepared dispersion was centrifuged to remove bigger particle size. The supernatant solution was then filtered through 0.45 μm (B1) or 0.2 μm (B2) nylon syringe filter and the filtrate were analyzed for content of stearic acid and palmitic acid.

As to Magnesium stearate, where the note is “powder, unfiltered”, the Palmitic acid is 49.35 % w/w and the Stearic acid was found to be 50.64 % w/w. For the setting “water, 0.2 μm filtered”, the Palmitic acid was found to be 2.91 % w/w, the Stearic acid amounted to 0.00 % w/w and the “Total fatty acid in media” value was 2.91%.

Source of the values: patent US12558320B2, “Method of preparing a solid dosage form and a lubricant” (Evonik Operations GmbH, priority 2019, dated 2026).
